Data reported in the supplement of paper PMC4862054.
Blank lines part the entries; values can stand above or below the molecule they belong to.

Assays:
Conditions in all cases: 72 h
[1] = test system: CAL-51
Procedure, shortened: (§1)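 Breast cancer cell lines in 20 µl suspension were added to 384-well plates already holding compound at 5 concentrations, spaced in 10-fold steps across a compound-specific 10,000-fold range, and incubated for 72 h. CellTox Green fluorescence (485/520 nm) was read first to measure cell death, followed by CellTiter-Glo luminescence for viability after 10 min at room temperature. Each plate was normalised to 0.1 % DMSO and a positive kill control. EC50 values came from dose-response curve fits and were censored at the top concentration.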

[2] = test system: MCF-10A
Description: (§2)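 Drug sensitivity and resistance testing (DSRT) of breast cancer cell lines in 384-well plates, 5 concentrations in 10-fold dilutions over a compound-specific 10,000-fold range. After 72 h, cytotoxicity was read by CellTox Green fluorescence and viability by CellTiter-Glo luminescence (multiplexed), normalised to DMSO and benzethonium chloride controls. EC50 is the inflection point of the fitted dose-response curve (bottom asymptote free, so it can be relative for partial curves) and is censored at the highest tested concentration. Rows with DSS 0 (no meaningful response) were excluded.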

[3] = test system: CAL-85-1
Procedure, shortened: as §1

[4] = test system: MCF-10A; remark: listed apart in the source
Procedure, shortened: as §1

[5] = test system: MDA-MB-468
Procedure, shortened: as §1

[6] = test system: CAL-85-1; remark: listed apart in the source
Description: as §2

[7] = test system: MDA-MB-468; remark: listed apart in the source
Description: as §2

[8] = test system: CAL-148
Description: as §2

[9] = test system: CAL-120
Procedure, shortened: as §1

[10] = test system: MFM-223
Procedure, shortened: as §1

[11] = test system: SK-BR-3
Procedure, shortened: as §1

[12] = test system: MDA-MB-453
Procedure, shortened: as §1

[13] = test system: HDQ-P1
Procedure, shortened: as §1

[14] = test system: CAL-148; remark: listed apart in the source
Procedure, shortened: as §1

[15] = test system: CAL-120; remark: listed apart in the source
Procedure, shortened: (§3)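 Breast cancer cell lines in 20 µl suspension were seeded onto 384-well plates that already held compound dissolved in 5 µl medium and were incubated for 72 h. Viability was measured by adding 2.5 µl CellTiter-Blue for 2 h at 37 °C and reading fluorescence at 560/590 nm. Each plate was normalised to vehicle and a positive kill control and checked by Z'-factor. EC50 was taken from a fitted percent-inhibition dose-response curve, censored at the highest concentration, and rows with a drug sensitivity score of zero were removed.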

[16] = test system: HCC1937
Procedure, shortened: as §3

[17] = test system: HCC1143
Procedure, shortened: as §3

[18] = test system: HCC1599
Procedure, shortened: as §3

[19] = test system: BT-549
Procedure, shortened: as §3

[20] = test system: MFM-223; remark: listed apart in the source
Procedure, shortened: as §3

[21] = test system: Hs578T
Procedure, shortened: as §3

[22] = test system: MDA-MB-468; remark: listed apart in the source
Procedure, shortened: as §3

[23] = test system: MDA-MB-436
Procedure, shortened: as §3

[24] = test system: MDA-MB-231
Procedure, shortened: as §3

[25] = test system: BT-549; remark: listed apart in the source
Description: as §2

[26] = test system: MDA-MB-231; remark: listed apart in the source
Description: as §2

[27] = test system: HCC1143; remark: listed apart in the source
Procedure, shortened: as §1

[28] = test system: BT-549; remark: listed apart in the source
Procedure, shortened: as §1

[29] = test system: Hs578T; remark: listed apart in the source
Procedure, shortened: as §1

[30] = test system: BT-474
Procedure, shortened: as §1

[31] = test system: MDA-MB-436; remark: listed apart in the source
Procedure, shortened: as §1

[32] = test system: MDA-MB-231; remark: listed apart in the source
Procedure, shortened: as §1

[33] = test system: SK-BR-3; remark: listed apart in the source
Procedure, shortened: as §3

[34] = test system: BT-474; remark: listed apart in the source
Procedure, shortened: as §3

[35] = test system: CAL-51; remark: listed apart in the source
Description: as §2

[36] = test system: HCC1937; remark: listed apart in the source
Procedure, shortened: as §1

SMILES: C[C@@H]1CCN(C(=O)CC#N)C[C@@H]1N(C)c1ncnc2[nH]ccc12 [Tofacitinib]
EC50, CellTiter-Glo [1]: 52.1 nM

EC50, CellTiter-Glo [5]: 213 nM
SMILES: Nc1nccc(-c2c(-c3ccc(F)cc3)ncn2C2CCCCC2)n1
EC50, CellTox Green [2]: 4810 nM
EC50, CellTiter-Glo [1]: > 10000 nM
EC50, CellTiter-Glo [3]: 9490 nM
EC50, CellTiter-Glo [4]: 9770 nM

EC50, CellTiter-Glo [11]: 2.49 nM
EC50, CellTiter-Glo [12]: 7.56 nM
EC50, CellTiter-Glo [5]: 539 nM
SMILES: CCOc1cc2ncc(C#N)c(Nc3ccc(OCc4ccccn4)c(Cl)c3)c2cc1NC(=O)/C=C/CN(C)C [Neratinib]
EC50, CellTox Green [6]: 211 nM
EC50, CellTox Green [7]: 149 nM
EC50, CellTox Green [8]: 791 nM
EC50, CellTiter-Glo [9]: 412 nM
EC50, CellTiter-Glo [1]: 926 nM
EC50, CellTiter-Glo [3]: 91.2 nM
EC50, CellTiter-Glo [10]: 692 nM
EC50, CellTiter-Glo [4]: 57.8 nM
EC50, CellTiter-Glo [13]: 309 nM
EC50, CellTiter-Glo [14]: 95.2 nM

EC50, CellTiter-Blue viability [16]: 142 nM
EC50, CellTiter-Blue viability [17]: 225 nM
EC50, CellTiter-Blue viability [18]: 110 nM
EC50, CellTiter-Blue viability [19]: 126 nM
EC50, CellTiter-Blue viability [22]: 442 nM
EC50, CellTiter-Blue viability [23]: 214 nM
EC50, CellTiter-Blue viability [24]: 110 nM
EC50, CellTiter-Glo [27]: 130 nM
EC50, CellTiter-Glo [28]: 155 nM
EC50, CellTiter-Glo [30]: 152 nM
EC50, CellTiter-Glo [5]: 26.2 nM
EC50, CellTiter-Glo [31]: 299 nM
EC50, CellTiter-Glo [32]: 144 nM
SMILES: CCS(=O)(=O)c1cccc(-c2cc(C(=O)NC3CCN(C)CC3)c(C)c3[nH]c4ncc(C)cc4c23)c1 [TAK-901]
EC50, CellTiter-Blue viability [15]: 94.4 nM
EC50, CellTiter-Blue viability [20]: 56.6 nM
EC50, CellTiter-Blue viability [21]: 125 nM
EC50, CellTox Green [25]: 871 nM
EC50, CellTox Green [26]: 184 nM
EC50, CellTiter-Glo [9]: 131 nM
EC50, CellTiter-Glo [10]: 123 nM
EC50, CellTiter-Glo [4]: 151 nM
EC50, CellTiter-Glo [29]: 445 nM
EC50, CellTiter-Glo [13]: 642 nM

EC50, CellTiter-Blue viability [19]: 1030 nM
EC50, CellTiter-Blue viability [24]: 1040 nM
SMILES: COc1cc(Nc2ncc(F)c(Nc3ccc4c(n3)NC(=O)C(C)(C)O4)n2)cc(OC)c1OC [R406]

EC50, CellTiter-Blue viability [16]: 22.4 nM
EC50, CellTiter-Blue viability [17]: 171 nM
EC50, CellTiter-Blue viability [18]: 678 nM
EC50, CellTiter-Blue viability [19]: 192 nM
EC50, CellTiter-Blue viability [33]: 38.1 nM
EC50, CellTiter-Blue viability [34]: 124 nM
EC50, CellTiter-Blue viability [22]: 105 nM
EC50, CellTiter-Blue viability [23]: 99.1 nM
EC50, CellTiter-Blue viability [24]: 73.2 nM
EC50, CellTiter-Glo [36]: 153 nM
EC50, CellTiter-Glo [28]: 3600 nM
EC50, CellTiter-Glo [11]: > 10000 nM
EC50, CellTiter-Glo [12]: 2620 nM
EC50, CellTiter-Glo [30]: 128 nM
EC50, CellTiter-Glo [5]: 664 nM
EC50, CellTiter-Glo [32]: 131 nM
SMILES: COC1=CC(c2cc3ccccc3[nH]2)=N/C1=C\c1[nH]c(C)cc1C [Obatoclax]
EC50, CellTiter-Blue viability [15]: 25.9 nM
EC50, CellTiter-Blue viability [20]: 1010 nM
EC50, CellTiter-Blue viability [21]: 162 nM
EC50, CellTox Green [35]: 2640 nM
EC50, CellTox Green [26]: 760 nM
EC50, CellTiter-Glo [1]: 3920 nM
EC50, CellTiter-Glo [3]: 126 nM

EC50, CellTiter-Blue viability [16]: 77100 nM
EC50, CellTiter-Glo [30]: > 100000 nM
SMILES: CS(=O)(=O)OCCCCOS(C)(=O)=O [Busulfan]
